Laboratory results published in PubChem BioAssay (NCI).
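Grown in 96-well plates, cells were treated for 48 hours with each compound at five concentrations. Insufficient inhibition: endpoint recorded as highest concentration tested. At the GI50, growth is halved. TGI: concentration producing complete growth inhibition.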

Columns and labels:
Assay in all cases: DTP human tumour cell line panel, 48 h; in the data active means GI50 below about 0.43 µM; inactive means the rest
[1] = system: COLO 205 colon
[2] = system: SW-620 colon
[3] = system: SF-268 CNS
[4] = system: LOX IMVI melanoma
[5] = system: MDA-MB-435
[6] = system: NCI-H522 lung
[7] = system: 786-0 renal
[8] = system: HT29 colon
[9] = system: SK-MEL-28 melanoma
[10] = system: HOP-62 NSCLC
[11] = system: ACHN renal
[12] = system: HS 578T breast
[13] = system: PC-3 prostate
[14] = system: SK-OV-3 ovarian
[15] = system: TK-10 renal
[16] = system: NCI-H460 lung
[17] = system: MCF7 breast
[18] = system: T-47D breast
[19] = system: OVCAR-5 ovarian
[20] = system: NCI/ADR-RES ovarian
[21] = system: RPMI-8226 leukemia
[22] = system: OVCAR-4 ovarian
[23] = system: BT-549 breast
[24] = system: UACC-257 melanoma
[25] = system: IGROV1 ovarian
[26] = system: CAKI-1 renal
[27] = system: NCI-H226 lung
[28] = system: SF-539 CNS
[29] = system: U251 CNS
[30] = system: HOP-92 NSCLC
[31] = system: DU-145 prostate
[32] = system: NCI-H23 lung
[33] = system: MDA-MB-231 breast
[34] = system: HL-60(TB) leukemia
[35] = system: OVCAR-8 ovarian
[36] = system: A498 renal
[37] = system: SNB-75 CNS
[38] = system: SF-295 CNS
[39] = system: SK-MEL-2 melanoma
[40] = system: MOLT-4 leukemia
[41] = system: UACC-62 melanoma
[42] = system: SN12C renal
[43] = system: SK-MEL-5 melanoma
[44] = system: SNB-19 CNS
[45] = system: HCC-2998 colon
[46] = system: UO-31 renal
[47] = system: SR leukemia
[48] = system: OVCAR-3 ovarian
[49] = system: CCRF-CEM leukemia
[50] = system: K-562 leukemia
[51] = system: HCT-116 colon
[52] = system: HCT-15 colon
[53] = system: KM12 colon
[54] = system: RXF 393 renal
[55] = system: A549 NSCLC
[56] = system: M14 melanoma
[57] = system: MALME-3M melanoma

O=C1NC(=NCCc2ccccn2)S/C1=C\c1ccc2ncccc2c1
21.1 µM: TGI [36]
14 µM: TGI [47]
> 22.2 µM: TGI [39]
24.3 µM: TGI [46]
24.5 µM: TGI [15]
inactive: GI50 [1] 9.05 µM | GI50 [2] 8.33 µM | GI50 [3] 11.4 µM | GI50 [4] 13.3 µM | GI50 [5] 9.59 µM | GI50 [6] 9.02 µM | GI50 [7] 16.8 µM | GI50 [8] 13.8 µM | GI50 [9] 15.4 µM | GI50 [10] 13.9 µM | GI50 [11] 8.2 µM | GI50 [12] 9.79 µM | GI50 [13] 15.1 µM | GI50 [14] 9.1 µM | GI50 [15] 7.33 µM | GI50 [16] 8.27 µM | GI50 [17] 10.5 µM | GI50 [18] 11 µM | GI50 [19] > 22.3 µM | GI50 [20] > 18.5 µM | GI50 [21] 13.1 µM | GI50 [22] 14.1 µM | GI50 [23] 10.5 µM | GI50 [24] 15.4 µM | GI50 [25] 9.29 µM | GI50 [26] 6.94 µM | GI50 [27] 11 µM | GI50 [28] 6.68 µM | GI50 [29] 9.23 µM | GI50 [30] 9.33 µM | GI50 [31] 11.7 µM | GI50 [32] 11.1 µM | GI50 [33] 18.5 µM | GI50 [34] 7.66 µM | GI50 [35] 12.6 µM | GI50 [36] 4.62 µM | GI50 [37] 1.69 µM | GI50 [38] > 16.1 µM | GI50 [39] 9.02 µM | GI50 [40] 8.04 µM | GI50 [41] 9.73 µM | GI50 [42] 9.33 µM | GI50 [43] 10.8 µM | GI50 [44] 11.1 µM | GI50 [45] > 21.4 µM | GI50 [46] 7.91 µM | GI50 [47] 4.21 µM | GI50 [48] 9.88 µM | GI50 [49] 10.6 µM | GI50 [50] 9.99 µM | GI50 [51] 8.25 µM | GI50 [52] 7.2 µM | GI50 [53] 18.2 µM | GI50 [54] 8.97 µM | GI50 [55] 8.29 µM | GI50 [56] 12.7 µM | GI50 [57] 18.1 µM
> 21.7 µM: TGI [26]
22.6 µM: TGI [40]
> 20.2 µM: TGI [12]
> 22.6 µM: TGI [6]
> 25 µM: TGI [1] | TGI [2] | TGI [3] | TGI [4] | TGI [5] | TGI [7] | TGI [8] | TGI [9] | TGI [10] | TGI [11] | TGI [13] | TGI [14] | TGI [16] | TGI [17] | TGI [18] | TGI [19] | TGI [20] | TGI [21] | TGI [22] | TGI [23] | TGI [24] | TGI [25] | TGI [27] | TGI [28] | TGI [29] | TGI [30] | TGI [31] | TGI [32] | TGI [33] | TGI [34] | TGI [35] | TGI [38] | TGI [41] | TGI [42] | TGI [43] | TGI [44] | TGI [45] | TGI [48] | TGI [49] | TGI [50] | TGI [51] | TGI [52] | TGI [53] | TGI [54] | TGI [55] | TGI [56] | TGI [57]
> 20.7 µM: TGI [37]
